Assay results as given in patent publication US20160331853A1, “COMPOSITIONS FOR RADIOTHERAPY AND USES THEREOF” (The Trustees of Columbia University in the City of New York, priority 2014, published 2016).
Several values for one entry are separate records, joined by “and”; a condition that tells them apart may be missing. Identical values can stand only once.

Tests used:
[1] = Example 2: Avidin and Avidin-Rhodamine binding to talc after PBS and 0.2% EDTA washes, fluorescent microscope; details: 100 mg talc; 3x PBS, 3x 0.2% EDTA washes
Procedure: The resulting mixtures were then washed with PBS and then washed with 0.2% EDTA.
3. Mix 1 mL of 100 μM of Avidin with 500 μL of 30.3 μM of Avidin Rhodamine (keep lights off).
4. […] Mix well to bring the dry talc powder to evenly distributed reaction solution.
8. Place tubes on the rotator and incubate overnight at 4° C.
5. Continue to wash all “b” labeled tubes with 0.2% EDTA. Wash 3× in 0.5 mL EDTA.
7. View slides under fluorescent microscope.

[2] = Example 3: binding Avidin to 100 mg sterile talc, Pierce 660 nm total protein assay of supernatants and washes
Procedure: Collect the supernatant liquid from two tubes containing the two highest concentrations of Avidin at varying points.
4. Run total protein assay using Pierce microplate kit and read plate in plate reader.
6. Wash all tubes in PBS two times, collecting the supernatant liquid from each wash ONLY from the two highest concentrations of Avidin (tubes labeled 1-2b, 1-2c, and 2-2b, 2-2c).
7. Continue to wash 3× with 0.5 mL of 0.2% EDTA.
8. Collect the supernatant from each wash and transfer to the new tubes only from the original tubes with the highest concentration of Avidin (50 μM and 5 μM). Collect only the FIRST wash with EDTA solution for the other tubes.
10. Run the total protein assay (see e.g., Example 1) using all the collected supernatant liquid.
The shape is similar to a nugget, and the calculations will substitute it's geometry with spheres. […] Less than 5% is below that range, and above that range.

[3] = Example 4: amount of Avidin saturating 100 mg talc, Pierce total protein assay of supernatant; format: binding
Excerpt: 2. Collect the supernatant from each tube but discard the pellet.
3. Run the Pierce total protein assay using the following dilutions of the collected supernatant.
4. Read plate in the plate reader (absorbance assay) at 660 nm wavelength.

[4] = Example 12: hot and cold Avidin mix binding to talc, repeat with controls, OD 450 nm
Procedure: The following Example repeated the hot/cold experiment shown in Example 10, with the addition of multiple controls.
1. Prepare 10 mL of 40 ng/mL (or […]) HRP Avidin in 1×PBS using 5.75 mg/mL or 32.5 μM of HRP Avidin stock solution.
6. Weigh 8 mg of Avidin (cold Avidin), then resuspend it in 2 mL of PBS that contains 40 ng/mL of “hot” Avidin. So the solution will now be 40 ng/mL hot Avidin+4 mg/mL of Cold Avidin. Label this tube as #1.
7. Make 3 mL of 1:10 dilution of solution in Tube #1 and make labeled Tube #2 containing 2.7 mL of 40 ng/mL in Hot Avidin solution in PBS+300 μL of Tube #1. The solution in the tube will contain 40 ng/mL of Hot Avidin+400 μg of Cold Avidin.
8. Make 1:2 dilution of solution in Tube #2 using as a diluted solvent of […] of Hot Avidin in PBS. Added 1 mL of Hot Avidin+1 mL of Tube #2. The final concentration will be 40 ng/mL of Hot Avidin+200 μg/mL of Cold Avidin. Label this tube as Tube #3.
9. Make 1:2 dilution of solution in Tube #3, using as a solvent of 40 ng/mL Hot Avidin in PBS Prepare 2 mL of solution: 1 mL of 40 ng/mL of Hot Avidin in PBS+1 mL of Tube #3 The final concentration will be 40 ng/mL of hot Avidin+100 μg/mL of Cold Avidin. Label this tube as Tube #4.
3. Wash the plate 3× with 300 μL PBS containing 10% FBS.
7. Add 100 μL of Stop Solution 2.
8. Read absorbance at 450 nm using the plate reader.

[5] = Example 14: talc bound to HRP- and cold Avidin, 48 hours incubation in PBS containing 10% FBS, OD 450 nm; format: physicochemical; details: 48 hours in PBS containing 10% FBS
Procedure: Purpose: To check how strong the conjugate of hot/cold Avidin to Talc is. […] Absorbance will be checked twice—once before washing with PBS containing 10% FBS and after 48 hours, washing will be done.
1. Prepare 10 mL of 40 ng/mL (or 260 μM) HRP Avidin in 1×PBS using 5.75 mg/mL or 32.5 uM of HRP Avidin stock solution.
6. Weigh 8 mg of Avidin (cold Avidin), then resuspend it in 2 mL of PBS containing 40 ng/mL of “hot” Avidin. So the solution will now be 40 ng/mL hot Avidin+4 mg/mL of Cold Avidin. Label this tube as #1.
14. […] Two identical microplates need to be set up, labeling them as: plate#I and plate#2. Design of the plate:
3. Wash both plates 3× with 300 μL PBS.
5. […] Mix constantly, cover plate with Aluminum foil.
6. Add 100 μL of TMB to samples in plate #1.
8. After incubation with TMB is over, add 100 μL of Stop Solution 2.
9. Read absorbance at 450 nm using the plate reader.
3. Collect 100 μL supernatant from samples except native controls and load on same plate.
4. Wash plate except supernatant samples 3× with 300 μL PBS.
6. Add 100 μL of TMB to all samples in plate#2.
8. After incubation with TMB is over add 100 μL of Stop Solution 2.

[6] = Coupling of avidin to talc, binding capacity (general description)

Avidin: Avidin from egg white (Sigma, Cat. A9275), unlabeled (cold) Avidin
binding to talc after washing [1]: remained bound to talc despite multiple washes | AVIDIN in supernatant after incubation ([2]; 198.4 μg Avidin + 100 mg talc): 13.7 μg/0.5 ml | Avidin binded to talc ([2]; 198.4 μg Avidin + 100 mg talc): 184.7 µg | Saturation of AVIDIN to the combine surface of 100 mg talc ([2]; 198.4 μg Avidin added): 2.48 μg/cm^2 | AVIDIN in supernatant after incubation ([2]; 198.4 μg Avidin in 0.5 ml + 100 mg talc): 27.4 µg/mL | Amount of Avidin removed by wash ([2]; 198.4 μg, 1st wash with EDTA): 15.8 µg/mL | Amount of Avidin removed by wash ([2]; 198.4 μg, 1st wash with PBS): 31.4 µg/mL | Amount of Avidin removed by wash ([2]; 198.4 μg, 2nd wash with EDTA): 19.8 µg/mL | Amount of Avidin removed by wash ([2]; 198.4 μg, 2nd wash with PBS): 27.6 µg/mL | Amount of Avidin removed by wash ([2]; 198.4 μg, 3rd wash with EDTA): 13 µg/mL | Amount of Avidin removed by wash ([2]; 198.4 μg, 3rd wash with PBS): 32.7 µg/mL | AVIDIN in supernatant after incubation ([2]; 1650.3 μg Avidin + 100 mg talc): 1185 μg/0.5 ml | Avidin binded to talc ([2]; 1650.3 μg Avidin + 100 mg talc): 465.3 µg | Saturation of AVIDIN to the combine surface of 100 mg talc ([2]; 1650.3 μg Avidin added): 6.25 μg/cm^2 | AVIDIN in supernatant after incubation ([2]; 1650.3 μg Avidin in 0.5 ml + 100 mg talc): 2370 µg/mL | Amount of Avidin removed by wash ([2]; 1650.3 μg, 1st wash with EDTA): 13.2 µg/mL | Amount of Avidin removed by wash ([2]; 1650.3 μg, 1st wash with PBS): 307.4 µg/mL | Amount of Avidin removed by wash ([2]; 1650.3 μg, 2nd wash with EDTA): 12.3 µg/mL | Amount of Avidin removed by wash ([2]; 1650.3 μg, 2nd wash with PBS): 67.3 µg/mL | Amount of Avidin removed by wash ([2]; 1650.3 μg, 3rd wash with EDTA): 13.2 µg/mL | Amount of Avidin removed by wash ([2]; 1650.3 μg, 3rd wash with PBS): 40.3 µg/mL | release of Avidin from talc surface during washes ([2]; 3x PBS, 3x 0.2% EDTA): Only first wash removed quantifiable amounts of Avidin from talc surface | saturation of talc particles ([2]; highest concentration of Avidin (50 μM), 100 mg talc): not fully saturated | Avidin binded with talc ([3]; 330 μg/ml Avidin added): 110.4 µg/mL | Avidin in supernatant ([3]; 330 μg/ml Avidin added): 219.6 μg, ml | Avidin per talc surface ([3]; 330 μg/ml Avidin added): 1.5 μg/cm2 | Avidin binded with talc ([3]; 3300 μg/ml Avidin added): 2452.7 µg/mL | Avidin in supernatant ([3]; 3300 μg/ml Avidin added): 847.3 μg, ml | Avidin per talc surface ([3]; 3300 μg/ml Avidin added): 33.0 μg/cm2 and 33 μg/cm2 | Avidin binded with talc ([3]; 6600 μg/ml Avidin added): 4631.5 µg/mL | Avidin in supernatant ([3]; 6600 μg/ml Avidin added): 1968.5 μg, ml | Avidin per talc surface ([3]; 6600 μg/ml Avidin added): 62.3 μg/cm2 | Avidin binded with talc ([3]; 13200 μg/ml Avidin added): 7952.7 µg/mL | Avidin in supernatant ([3]; 13200 μg/ml Avidin added): 5247.3 μg, ml | Avidin per talc surface ([3]; 13200 μg/ml Avidin added): 106.9 μg/cm2 | Avidin binded with talc ([3]; 19800 μg/ml Avidin added): 12166.7 µg/mL | Avidin in supernatant ([3]; 19800 μg/ml Avidin added): 7633.3 μg, ml | Avidin per talc surface ([3]; 19800 μg/ml Avidin added): 163.5 μg/cm2 | saturation of talc particles ([3]; increasing concentrations of Avidin): not fully saturated | Efficiency of binding, OD ([4]; 1 mg talc, Cold Avidin only 100 ug/mL): 0.31 OD | Efficiency of binding, OD ([4]; 1 mg talc, Cold Avidin only 200 ug/mL): 0.27 OD | Efficiency of binding, OD ([4]; 1 mg talc, Cold Avidin only 400 ug/mL): 0.3 OD | Efficiency of binding, OD ([4]; 1 mg talc, Cold Avidin only 4 mg/mL): 0.33 OD | Efficiency of binding, OD ([4]; 5 mg talc, Cold Avidin only 100 ug/mL): 1.38 OD | Efficiency of binding, OD ([4]; 5 mg talc, Cold Avidin only 200 ug/mL): 1.4 OD | Efficiency of binding, OD ([4]; 5 mg talc, Cold Avidin only 400 ug/mL): 1.01 OD | Efficiency of binding, OD ([4]; 5 mg talc, Cold Avidin only 4 mg/mL): 1.23 OD | stability of binding of Avidin to talc [5]: unchanged at 48 hours | avidin bound by talc [6]: > 2 nanograms of avidin per mg of talc
